From ChEMBL document CHEMBL1268980, “2-Aryl benzimidazoles: human SCD1-specific stearoyl coenzyme-A desaturase inhibitors” (Bioorg Med Chem Lett, 2010)

What was measured:
[1] = target: T1, Acyl-CoA desaturase 1 (Rattus norvegicus, UniProt P07308); assay: Inhibition of rat SCD1
T1 sequence (P07308 whole entry): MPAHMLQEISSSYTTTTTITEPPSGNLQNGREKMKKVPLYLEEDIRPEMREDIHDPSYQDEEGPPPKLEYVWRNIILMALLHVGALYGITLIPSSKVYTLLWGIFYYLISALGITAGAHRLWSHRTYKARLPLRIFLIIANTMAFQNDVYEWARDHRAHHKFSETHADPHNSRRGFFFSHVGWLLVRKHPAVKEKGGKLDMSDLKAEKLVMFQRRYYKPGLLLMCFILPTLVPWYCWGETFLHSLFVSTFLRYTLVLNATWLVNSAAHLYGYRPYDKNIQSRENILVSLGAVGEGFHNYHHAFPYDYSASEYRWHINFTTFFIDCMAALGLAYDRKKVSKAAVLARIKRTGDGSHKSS

[2] = target: T2, Stearoyl-CoA desaturase (Homo sapiens, UniProt O00767); assay: Inhibition of human SCD1
T2 sequence (O00767 whole entry): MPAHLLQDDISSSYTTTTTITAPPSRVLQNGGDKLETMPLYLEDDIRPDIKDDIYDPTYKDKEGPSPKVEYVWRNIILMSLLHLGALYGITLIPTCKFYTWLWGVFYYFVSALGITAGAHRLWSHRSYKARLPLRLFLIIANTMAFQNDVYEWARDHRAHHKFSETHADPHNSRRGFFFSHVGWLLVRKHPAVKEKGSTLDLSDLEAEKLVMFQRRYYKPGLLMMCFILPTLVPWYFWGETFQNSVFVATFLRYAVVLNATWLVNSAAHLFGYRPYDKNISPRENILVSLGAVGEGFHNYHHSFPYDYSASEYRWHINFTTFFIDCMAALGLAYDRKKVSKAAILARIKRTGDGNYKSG

[3] = target: T3, Stearoyl-CoA desaturase 5 (Homo sapiens, UniProt Q86SK9); assay: Inhibition of human SCD5
T3 sequence (Q86SK9 whole entry): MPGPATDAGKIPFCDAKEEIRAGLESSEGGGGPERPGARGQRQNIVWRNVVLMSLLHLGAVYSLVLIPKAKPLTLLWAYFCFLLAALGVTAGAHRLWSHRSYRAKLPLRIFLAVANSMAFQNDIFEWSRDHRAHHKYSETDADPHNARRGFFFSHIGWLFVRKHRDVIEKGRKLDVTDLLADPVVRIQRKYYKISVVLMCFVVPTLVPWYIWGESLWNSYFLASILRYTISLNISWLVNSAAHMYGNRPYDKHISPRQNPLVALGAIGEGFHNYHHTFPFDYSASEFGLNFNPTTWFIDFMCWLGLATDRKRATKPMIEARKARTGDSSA

[4] = Drug level in high sucrose/fat free diet fed C57BL/6 mouse plasma at 100 mg/kg, po after 3 hrs post dose; assay type: ADME, organism-based, C57BL6; set-up: dose 100 mg/kg, route oral
[5] = target: Acyl-CoA (8-3)-desaturase (Homo sapiens, UniProt O60427); assay: Inhibition of Delta(5) fatty acid desaturase in human HepG2 cells; assay type: cell-based
[6] = Drug level in high sucrose/fat free diet fed C57BL/6 mouse liver at 30 mg/kg, po after 3 hrs post dose; assay type: ADME, organism-based, C57BL6; set-up: dose 30 mg/kg, route oral; settings: read-out: Drug uptake
[7] = Volume of distribution at steady state in C57BL/6 mouse at 10 mg/kg, po or 2 mg/kg, iv; assay type: ADME, organism-based, C57BL6; settings: in vivo, read-out: Vdss
[8] = tested on: Mus musculus; assay: Inhibition of SCD activity in high sucrose/fat free diet fed C57BL/6 mouse assessed as reduction in conversion of [14C]stearic acid to [14C]oleic acid at 100 mg/kg, po; assay type: functional; settings: C57BL6
[9] = Drug level in high sucrose/fat free diet fed C57BL/6 mouse plasma at 30 mg/kg, po after 3 hrs post dose; assay type: ADME, organism-based, C57BL6; set-up: dose 30 mg/kg, route oral
[10] = Oral bioavailability in Beagle dog at 2 mg/kg, po; assay type: ADME, organism-based, Canis lupus familiaris; settings: in vivo
[11] = Drug level in high sucrose/fat free diet fed C57BL/6 mouse liver at 100 mg/kg, po after 3 hrs post dose; assay type: ADME, organism-based, C57BL6; set-up: dose 100 mg/kg, route oral; settings: read-out: Drug uptake
[12] = AUC in C57BL/6 mouse plasma at 10 mg/kg, po or 2 mg/kg, iv; assay type: ADME, organism-based, C57BL6
[13] = Volume of distribution at steady state in Beagle dog at 2 mg/kg, po or 0.5 mg/kg, iv; assay type: ADME, organism-based, Canis lupus familiaris; settings: in vivo, read-out: Vdss
[14] = target: T4, Acyl-CoA (8-3)-desaturase (Rattus norvegicus, UniProt Q920R3); assay: Inhibition of rat Delta(5) fatty acid desaturase by cell based assay
[15] = Half life in Beagle dog at 2 mg/kg, po or 0.5 mg/kg, iv; assay type: ADME, organism-based, Canis lupus familiaris; settings: in vivo
[16] = Plasma clearance in C57BL/6 mouse at 10 mg/kg, po or 2 mg/kg, iv; assay type: ADME, organism-based, C57BL6
[17] = tested on: Mus musculus; assay: Inhibition of SCD activity in high sucrose/fat free diet fed C57BL/6 mouse assessed as reduction in conversion of [14C]stearic acid to [14C]oleic acid at 30 mg/kg, po; assay type: functional; settings: C57BL6
[18] = AUC in Beagle dog plasma at 2 mg/kg, po or 0.5 mg/kg, iv; assay type: ADME, organism-based, Canis lupus familiaris
[19] = Plasma clearance in Beagle dog at 2 mg/kg, po or 0.5 mg/kg, iv; assay type: ADME, organism-based, Canis lupus familiaris
[20] = tested on: Mus musculus; assay: Inhibition of SCD activity in po dosed high sucrose/fat free diet fed C57BL/6 mouse assessed as reduction in conversion of [14C]stearic acid to [14C]oleic acid; assay type: functional, organism-based; settings: C57BL6
[21] = Terminal half life in C57BL/6 mouse at 10 mg/kg, po or 2 mg/kg, iv; assay type: ADME, organism-based, C57BL6; settings: in vivo, read-out: beta t1/2 (converted)
[22] = target: T4, Acyl-CoA (8-3)-desaturase; assay: Inhibition of Delta(5) fatty acid desaturase in freshly isolated rat hepatocytes; assay type: cell-based, Hepatocyte
[23] = Oral bioavailability in C57BL/6 mouse at 10 mg/kg, po; assay type: ADME, organism-based, C57BL6; settings: in vivo

T4 sequence (Q920R3 whole entry): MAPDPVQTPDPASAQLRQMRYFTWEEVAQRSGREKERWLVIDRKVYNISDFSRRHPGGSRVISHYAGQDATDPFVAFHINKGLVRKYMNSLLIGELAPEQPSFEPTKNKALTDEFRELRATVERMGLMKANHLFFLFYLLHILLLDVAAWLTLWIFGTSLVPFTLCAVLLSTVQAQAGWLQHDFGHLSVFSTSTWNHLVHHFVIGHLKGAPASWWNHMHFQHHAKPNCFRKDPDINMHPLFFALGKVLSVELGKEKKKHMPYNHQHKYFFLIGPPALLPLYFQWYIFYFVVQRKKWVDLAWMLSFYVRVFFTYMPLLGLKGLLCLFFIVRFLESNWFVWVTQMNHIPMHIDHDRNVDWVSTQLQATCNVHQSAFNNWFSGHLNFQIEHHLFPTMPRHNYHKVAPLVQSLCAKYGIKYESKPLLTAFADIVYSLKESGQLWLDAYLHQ
Sequence of Acyl-CoA (8-3)-desaturase (Homo sapiens, UniProt O60427) (O60427 whole entry): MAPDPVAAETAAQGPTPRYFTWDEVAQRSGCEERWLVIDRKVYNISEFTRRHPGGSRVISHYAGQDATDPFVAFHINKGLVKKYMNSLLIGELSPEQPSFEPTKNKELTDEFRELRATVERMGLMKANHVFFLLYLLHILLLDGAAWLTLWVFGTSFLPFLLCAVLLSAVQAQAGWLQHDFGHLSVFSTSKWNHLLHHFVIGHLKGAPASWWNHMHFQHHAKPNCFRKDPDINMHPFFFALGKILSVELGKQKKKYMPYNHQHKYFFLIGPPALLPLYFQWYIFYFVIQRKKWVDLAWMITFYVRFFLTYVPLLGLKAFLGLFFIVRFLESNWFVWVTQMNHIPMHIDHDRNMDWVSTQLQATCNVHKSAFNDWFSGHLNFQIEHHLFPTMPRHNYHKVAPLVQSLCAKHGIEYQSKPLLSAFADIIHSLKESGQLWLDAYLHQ

Row | Structure (SMILES) | IC50 [1] [µM] | IC50 [2] [µM] | IC50 [3] [µM] | also measured
1 | CS(=O)(=O)c1ccc2nc(-c3ccc(-c4ccncc4)cc3)[nH]c2c1 | 2.47 | 4.25 | > 20 | –
2 | N#Cc1ccc2nc(-c3ccc(-c4ccccc4F)cc3)[nH]c2c1 | > 20 | > 20 | > 20 | –
3 | Cc1ccccc1-c1ccc(-c2nc3ccc(S(C)(=O)=O)cc3[nH]2)cc1 | 3.86 | – | – | –
4 | CS(=O)(=O)c1ccc2nc(-c3ccc(-c4ccc(Cl)cc4)cc3)[nH]c2c1 | > 20 | – | – | –
5 | Cn1c(-c2ccc(-c3ccccc3F)nc2)nc2ccc(S(C)(=O)=O)cc21 | > 20 | – | – | –
6 | Cn1c(-c2ccc(-c3ccccc3F)nc2)nc2cc(S(C)(=O)=O)ccc21 | 2.49 | – | – | –
7 | CS(=O)(=O)c1ccc2nc(-c3ccc(-c4ccccc4)cc3)cn2c1 | > 20 | – | – | –
8 | CS(=O)(=O)c1ccc2nc(-c3ccc(-c4ccccc4)cc3)sc2c1 | > 20 | – | – | –
9 | CCS(=O)(=O)c1ccc2nc(-c3ccc(-c4ccccc4F)cc3)[nH]c2c1 | 1.25 | 1.31 | > 20 | –
10 | Fc1ccccc1-c1ccc(-c2nc3ccccc3[nH]2)cc1 | > 20 | – | – | –

Now those with a lower IC50 [1], led by results:

Row | IC50 [1] [µM] | IC50 [2] [µM] | IC50 [3] [µM] | Structure (SMILES) | also measured
11 | 0.697 | – | – | CSc1ccc2nc(-c3ccc(-c4ccccc4F)cc3)[nH]c2c1 | –
12 | 0.472 | – | – | Cc1ccsc1-c1ccc(-c2nc3ccc(S(C)(=O)=O)cc3[nH]2)cc1 | –
13 | 0.401 | – | – | O=S(=O)(c1ccc2nc(-c3ccc(-c4ccccc4F)cc3)[nH]c2c1)C1CC1 | –
14 | 0.396 | 0.342 | > 20 | CS(=O)(=O)c1ccc2nc(-c3ccc(-c4cccc(O)c4)cc3)[nH]c2c1 | –
15 | 0.395 | 1.7 | > 20 | CS(=O)(=O)c1ccc2nc(-c3ccc(-c4ccoc4)cc3)[nH]c2c1 | –
16 | 0.304 | 2.33 | > 20 | CS(=O)(=O)c1ccc2nc(-c3ccc(-c4ccc(O)cc4)cc3)[nH]c2c1 | –
17 | 0.227 | – | – | CS(=O)(=O)c1ccc2nc(-c3ccc(-c4ccccc4F)cn3)[nH]c2c1 | –
18 | 0.175 | 0.731 | > 20 | CC(C)(C)c1ccc2nc(-c3ccc(-c4ccccc4F)cc3)[nH]c2c1 | –
19 | 0.095 | – | – | CS(=O)(=O)c1ccc2nc(-c3ccc(-c4cccc(Cl)c4F)cc3)[nH]c2c1 | –
20 | 0.065 | 0.027 | > 20 | CS(=O)(=O)c1ccc2nc(-c3ccc(-c4ccccc4F)cc3)[nH]c2c1 | concentration at 3 h [4]: 13.2 µM; IC50 [5]: 1.32 µM; concentration at 3 h [6]: 10.1 µM; Vd [7]: 2.9 L/kg; inhibition in vivo at 100 mg/kg [8]: 78%; concentration at 3 h [9]: 6.5 µM; bioavailability [10]: 70%; concentration at 3 h [11]: 31.9 µM; AUC [12]: 8 µM·h; Vd [13]: 2 L/kg; IC50 [14]: > 50 µM; half-life [15]: 1.1 h; clearance [16]: 20 mL/min/kg; inhibition in vivo at 30 mg/kg [17]: 36%; AUC [18]: 2.4 µM·h; clearance [19]: 26 mL/min/kg; inhibition [20]: Dose-dependent effect; half-life [21]: 35.5 h; IC50 [22]: 5.17 µM; bioavailability [23]: 39%
21 | 0.021 | 0.03 | > 20 | CS(=O)(=O)c1ccc2nc(-c3ccc(-c4cccc(F)c4)cc3)[nH]c2c1 | –
